Laboratory results published in ChEMBL document CHEMBL1201862, “PubChem BioAssay data set” (2004).
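Where inhibition never reached the appropriate level, the endpoint shown equals the highest concentration tested. Otherwise, values were interpolated linearly from a five-concentration, 48-hour dose response in 96-well plates. Abbreviation: GI50, concentration required for 50% inhibition of growth.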 Active and inactive are the calls of the source. Rule as the data show it: active = GI50 up to about 1.1 µM and inactive = higher.

How the values were obtained:
Experiment in all cases: inhibition of tumour cell growth, NCI panel, 48 h
KM12 = tested on: KM12
OVCAR-8 = tested on: OVCAR-8
NCI-H460 = tested on: NCI-H460
HT-29 = tested on: HT-29
M14 = tested on: M14
SF-539 = tested on: SF-539
COLO 205 = tested on: COLO 205
OVCAR-4 = tested on: OVCAR-4
LXFL 529 = tested on: LXFL 529
OVCAR-5 = tested on: OVCAR-5
HCT-116 = tested on: HCT-116
A549 = tested on: A549
KM-20L2 = tested on: KM-20L2
CCRF-CEM = tested on: CCRF-CEM
DMS-273 = tested on: DMS-273
UACC-257 = tested on: UACC-257
Hs-578T = tested on: Hs-578T
T47D = tested on: T47D
RXF 393 = tested on: RXF 393
LOX IMVI = tested on: LOX IMVI

Compound	GI50 (KM12)	GI50 (OVCAR-8)	GI50 (NCI-H460)	GI50 (HT-29)	GI50 (M14)	GI50 (SF-539)	GI50 (COLO 205)	GI50 (OVCAR-4)	GI50 (LXFL 529)	GI50 (OVCAR-5)	GI50 (HCT-116)	GI50 (A549)	GI50 (KM-20L2)	GI50 (CCRF-CEM)	GI50 (DMS-273)	GI50 (UACC-257)	GI50 (Hs-578T)	GI50 (T47D)	GI50 (RXF 393)	GI50 (LOX IMVI)
C/C(CN1C(=O)c2ccccc2C1=O)=N\NS(=O)(=O)c1ccc(Cl)cc1	> 100 µM (inactive)	> 100 µM (inactive)	> 100 µM (inactive)	> 100 µM (inactive)	> 100 µM (inactive)	> 100 µM (inactive)	> 100 µM (inactive)	> 100 µM (inactive)	> 100 µM (inactive)	> 100 µM (inactive)	> 100 µM (inactive)	> 100 µM (inactive)	> 100 µM (inactive)	> 100 µM (inactive)	> 100 µM (inactive)	> 100 µM (inactive)	–	–	–	–
COC(=O)C1Cc2cc3c(cc2C1)CCC3	> 100 µM (inactive)	> 100 µM (inactive)	> 100 µM (inactive)	68.9 µM (inactive)	> 100 µM (inactive)	> 100 µM (inactive)	> 100 µM (inactive)	> 100 µM (inactive)	–	> 100 µM (inactive)	> 100 µM (inactive)	> 100 µM (inactive)	–	> 100 µM (inactive)	–	> 100 µM (inactive)	> 100 µM (inactive)	> 100 µM (inactive)	> 100 µM (inactive)	> 100 µM (inactive)
CCSc1nnc(CSc2nc(-c3ccccc3)c(-c3ccccc3)[nH]2)n1-c1ccccc1	16.9 µM (inactive)	21.6 µM (inactive)	18.9 µM (inactive)	19.4 µM (inactive)	19 µM (inactive)	–	16.1 µM (inactive)	–	27.4 µM (inactive)	14.5 µM (inactive)	18.2 µM (inactive)	29.9 µM (inactive)	17.9 µM (inactive)	17 µM (inactive)	23.4 µM (inactive)	18.6 µM (inactive)	–	–	25.8 µM (inactive)	22.9 µM (inactive)
CCC(=O)NCC1(c2c[nH]c3ccccc23)SCCS1	> 100 µM (inactive)	> 100 µM (inactive)	> 100 µM (inactive)	53 µM (inactive)	> 100 µM (inactive)	> 100 µM (inactive)	> 100 µM (inactive)	> 100 µM (inactive)	> 100 µM (inactive)	> 100 µM (inactive)	48.1 µM (inactive)	> 100 µM (inactive)	> 100 µM (inactive)	> 100 µM (inactive)	> 100 µM (inactive)	> 100 µM (inactive)	–	–	–	> 100 µM (inactive)
COC(=O)c1cc(=O)nc2cc3cccccc3n12	> 100 µM (inactive)	> 100 µM (inactive)	59 µM (inactive)	> 100 µM (inactive)	> 100 µM (inactive)	> 100 µM (inactive)	> 100 µM (inactive)	–	> 100 µM (inactive)	> 100 µM (inactive)	> 100 µM (inactive)	> 100 µM (inactive)	> 100 µM (inactive)	> 100 µM (inactive)	–	> 100 µM (inactive)	–	–	> 100 µM (inactive)	> 100 µM (inactive)
Cc1cc(C)nc(NS(=O)(=O)c2ccc(Nc3c4ccccc4nc4c(C(=O)NCCN(C)C)ccc(Cl)c34)cc2)n1	1.7 µM (inactive)	0.681 µM (active)	0.39 µM (active)	0.659 µM (active)	2.9 µM (inactive)	2.36 µM (inactive)	1.06 µM (active)	1.1 µM (active)	1.11 µM (active)	4.7 µM (inactive)	0.798 µM (active)	0.942 µM (active)	2.08 µM (inactive)	1.31 µM (inactive)	–	–	–	–	2.09 µM (inactive)	0.711 µM (active)
O=S(=O)(O)C(CO)c1ccccc1.O=S(=O)(O)Cc1ccccc1 (stereo unspecified)	> 100 µM (inactive)	> 100 µM (inactive)	> 100 µM (inactive)	> 100 µM (inactive)	> 100 µM (inactive)	> 100 µM (inactive)	> 100 µM (inactive)	> 100 µM (inactive)	–	> 100 µM (inactive)	> 100 µM (inactive)	> 100 µM (inactive)	–	19.6 µM (inactive)	–	> 100 µM (inactive)	96.4 µM (inactive)	> 100 µM (inactive)	> 100 µM (inactive)	> 100 µM (inactive)
COC(=O)/C(C#N)=C1\CCC(Nc2cccc(C(F)(F)F)c2)N1C (stereo unspecified)	59.6 µM (inactive)	> 100 µM (inactive)	> 100 µM (inactive)	> 100 µM (inactive)	> 100 µM (inactive)	> 100 µM (inactive)	–	> 100 µM (inactive)	74 µM (inactive)	> 100 µM (inactive)	> 100 µM (inactive)	> 100 µM (inactive)	56 µM (inactive)	> 100 µM (inactive)	–	> 100 µM (inactive)	–	–	46.1 µM (inactive)	> 100 µM (inactive)
